Values quoted from earlier work, collected in patent US20050084507A1, “Liquid preparations and surfactant/solvent systems” (priority 1999, published 2005).
Converted amounts (≈) assume the structure as drawn.

SMILES: CCOC1Oc2ccc(OS(C)(=O)=O)cc2C1(C)C (stereo not shown) [ethofumesate]
- solubility in water: 50 µg/mL (≈ 175 µM)
